In patent publication US20050106730A1, “Compositions and methods utilizing stable reporter cell lines for detection of pathway-specific signal transduction” (priority 1999, published 2005):

What was measured:
[1] = test system: cAMP/CREB pathway (GAL4-CREB fusion); experiment: Luciferase reporter assay in RCLH-CREB stable reporter cells treated with extracellular stimuli; type: cell-based, human; settings: in the presence of 100 uM forskolin, 5 hours
[2] = test system: MAPK pathway converging on Elk1 (GAL4-Elk1 fusion); experiment: Luciferase reporter assay in RCLH-Elk1 stable reporter cells treated with extracellular stimuli; settings: separate experiment

Molecule	Stimulation of luciferase expression [1]	Activation of MAPK pathways [2]
CCCCCCCCCCCCCC(=O)O[C@@H]1[C@@H](C)[C@@]2(O)[C@@H](C=C(CO)C[C@]3(O)C(=O)C(C)=C[C@@H]23)[C@@H]2C(C)(C)[C@]12OC(C)=O [PMA, phorbol 12-myristate 13-acetate]	approximately 70 fold	–
TGF-α: growth factor found to activate MAPK pathways	–	also activates MAPK pathways
